In PubChem BioAssay (NCI):
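Briefly, cells in 96-well plates were exposed to five compound concentrations for 48 h, and endpoints were estimated by linear interpolation. TGI: concentration producing complete growth inhibition.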

Experiments:
Test in all cases: NCI tumour cell line growth inhibition, 48 h
[1] = test system: NCI-H522 lung
[2] = test system: NCI-H460 lung
[3] = test system: IGROV1 ovarian
[4] = test system: PC-3 prostate
[5] = test system: HCT-116 colon
[6] = test system: A498 renal
[7] = test system: M14 melanoma
[8] = test system: HOP-92 NSCLC
[9] = test system: TK-10 renal
[10] = test system: HCC-2998 colon
[11] = test system: NCI-H226 lung
[12] = test system: ACHN renal
[13] = test system: UACC-257 melanoma
[14] = test system: MDA-N
[15] = test system: NCI-H23 lung
[16] = test system: 786-0 renal
[17] = test system: SW-620 colon
[18] = test system: COLO 205 colon
[19] = test system: CAKI-1 renal
[20] = test system: SK-MEL-28 melanoma
[21] = test system: SF-268 CNS
[22] = test system: SF-295 CNS
[23] = test system: MALME-3M melanoma
[24] = test system: RPMI-8226 leukemia
[25] = test system: K-562 leukemia
[26] = test system: HT29 colon
[27] = test system: SNB-75 CNS
[28] = test system: DU-145 prostate
[29] = test system: RXF 393 renal
[30] = test system: MOLT-4 leukemia
[31] = test system: SR leukemia
[32] = test system: A549 NSCLC
[33] = test system: LOX IMVI melanoma
[34] = test system: EKVX NSCLC
[35] = test system: UO-31 renal
[36] = test system: UACC-62 melanoma
[37] = test system: OVCAR-3 ovarian
[38] = test system: NCI/ADR-RES ovarian
[39] = test system: CCRF-CEM leukemia
[40] = test system: MCF7 breast
[41] = test system: KM12 colon
[42] = test system: MDA-MB-231 breast
[43] = test system: HL-60(TB) leukemia
[44] = test system: SN12C renal
[45] = test system: MDA-MB-435
[46] = test system: SK-OV-3 ovarian
[47] = test system: OVCAR-4 ovarian
[48] = test system: SK-MEL-5 melanoma
[49] = test system: OVCAR-8 ovarian
[50] = test system: SNB-19 CNS
[51] = test system: SF-539 CNS
[52] = test system: HS 578T breast
[53] = test system: HOP-62 NSCLC
[54] = test system: OVCAR-5 ovarian
[55] = test system: HCT-15 colon
[56] = test system: U251 CNS
[57] = test system: SK-MEL-2 melanoma

## CC1(C)C=C(/C=N/Nc2ccccc2)C(C#N)=C(O)C1(C#N)C#N
[1]
  TGI: > 100 µM
[2]
  TGI: > 100 µM
[3]
  TGI: > 100 µM
[4]
  TGI: > 100 µM
[5]
  TGI: > 100 µM
[6]
  TGI: > 100 µM
[7]
  TGI: > 100 µM
[8]
  TGI: 99.6 µM
[9]
  TGI: > 100 µM
[10]
  TGI: > 100 µM
[11]
  TGI: > 100 µM
[12]
  TGI: > 100 µM
[13]
  TGI: > 100 µM
[14]
  TGI: > 100 µM
[15]
  TGI: > 100 µM
[16]
  TGI: > 100 µM
[17]
  TGI: > 100 µM
[18]
  TGI: > 100 µM
[19]
  TGI: > 100 µM
[20]
  TGI: > 100 µM
[21]
  TGI: > 100 µM
[22]
  TGI: > 100 µM
[23]
  TGI: > 100 µM
[24]
  TGI: > 100 µM
[25]
  TGI: > 100 µM
[26]
  TGI: > 100 µM
[27]
  TGI: > 100 µM
[28]
  TGI: > 100 µM
[29]
  TGI: > 100 µM
[30]
  TGI: > 100 µM
[31]
  TGI: > 100 µM
[32]
  TGI: > 100 µM
[33]
  TGI: > 100 µM
[34]
  TGI: > 100 µM
[35]
  TGI: > 100 µM
[36]
  TGI: > 100 µM
[37]
  TGI: > 100 µM
[38]
  TGI: > 100 µM
[39]
  TGI: > 100 µM
[40]
  TGI: > 100 µM
[41]
  TGI: > 100 µM
[42]
  TGI: > 100 µM
[43]
  TGI: > 100 µM
[44]
  TGI: > 100 µM
[45]
  TGI: > 100 µM
[46]
  TGI: > 100 µM
[47]
  TGI: > 100 µM
[48]
  TGI: > 100 µM
[49]
  TGI: > 100 µM
[50]
  TGI: > 100 µM
[51]
  TGI: > 100 µM
[52]
  TGI: > 100 µM
[53]
  TGI: > 100 µM
[54]
  TGI: > 100 µM

## O=C1NC(Cc2ccc(O)cc2)C(=O)NC1Cc1ccc(O)cc1 (stereo not given)
[1]
  TGI: > 100 µM
[2]
  TGI: > 100 µM
[3]
  TGI: > 100 µM
[4]
  TGI: > 100 µM
[5]
  TGI: > 100 µM
[6]
  TGI: > 100 µM
[7]
  TGI: > 100 µM
[8]
  TGI: > 100 µM
[9]
  TGI: > 100 µM
[11]
  TGI: > 100 µM
[12]
  TGI: > 100 µM
[13]
  TGI: > 100 µM
[14]
  TGI: > 100 µM
[15]
  TGI: > 100 µM
[55]
  TGI: > 100 µM
[16]
  TGI: > 100 µM
[17]
  TGI: > 100 µM
[18]
  TGI: > 100 µM
[19]
  TGI: > 100 µM
[20]
  TGI: > 100 µM
[21]
  TGI: > 100 µM
[22]
  TGI: > 100 µM
[23]
  TGI: > 100 µM
[24]
  TGI: > 100 µM
[25]
  TGI: > 100 µM
[26]
  TGI: > 100 µM
[27]
  TGI: > 100 µM
[28]
  TGI: > 100 µM
[29]
  TGI: > 100 µM
[30]
  TGI: > 100 µM
[31]
  TGI: > 100 µM
[32]
  TGI: > 100 µM
[33]
  TGI: > 100 µM
[34]
  TGI: > 100 µM
[56]
  TGI: > 100 µM
[35]
  TGI: > 100 µM
[36]
  TGI: > 100 µM
[37]
  TGI: > 100 µM
[38]
  TGI: > 100 µM
[39]
  TGI: > 100 µM
[40]
  TGI: > 100 µM
[41]
  TGI: > 100 µM
[42]
  TGI: > 100 µM
[43]
  TGI: > 100 µM
[44]
  TGI: > 100 µM
[45]
  TGI: > 100 µM
[46]
  TGI: > 100 µM
[47]
  TGI: > 100 µM
[48]
  TGI: > 100 µM
[49]
  TGI: > 100 µM
[50]
  TGI: > 100 µM
[51]
  TGI: > 100 µM
[52]
  TGI: > 100 µM
[57]
  TGI: > 100 µM
[53]
  TGI: > 100 µM
[54]
  TGI: > 100 µM
